Assays:
complex I to III = test: Respiratory chain complex activities in mitochondrial fractions; type: cell-based, human; settings: colorectal cancer cell lines; HMGB1 80 nM, 24 h
Protocol: (§1) Enzymatic activities of respiratory chain complexes, glycolytic proteins and malic enzyme were determined in subcellular fractions as previously described (Kaminski, M. M. et al. T cell activation is driven by an ADP-dependent glucokinase linking enhanced glycolysis with mitochondrial reactive oxygen species generation. Cell reports 2, 1300-1315 (2012).Bruncko, M. et al. Naphthamidine urokinase plasminogen activator inhibitors with improved pharmacokinetic properties. Bioorganic & medicinal chemistry letters 15, 93-98, (2005)) using a computer-tuneable spectrophotometer (Spectramax Plus Microplate Reader, Molecular Devices; Sunny Vale, Calif., USA) operating in the dual wavelength mode; samples were analyzed in temperature-controlled 96-well plates in a final volume of 300 μl. Activity of ME1 was recorded in presence of increasing amounts of malic acid (0.02, 0.05, 0.1, 0.2, 0.5, 1, 2.5 mM). Vmax and Km were calculated using a Hanes-Woolf plot. In the presence of high substrate levels the Km for malic acid was similar in all three tested cell lines (SW480: 0.32 mM, HCT116: 0.30 mM, HT29: 0.31 mM). Vmax (mU/mg protein) values were 3.38 (SW480, 0.5-5.0 mM malic acid), 5.77 (HCT116, 0.5-5.0 mM malic acid) and 3.68 (HT29, 0.5-5.0 mM malic acid) and 1.68 (SW480, 0.02-0.2 mM malic acid), 3.24 (HCT116, 0.02-0.2 mM malic acid) and 1.89 (HT29, 0.02-0.2 mM malic acid). Two isoforms of ME1, mitochondrial (NAD(P)+dependent) ME3 and mitochondrial (NAD+dependent) ME2, had very low or no detectable activities (data not shown).
(§2) Cells were lysed in lysis buffer P (20 mM Tris-HCl (pH 7.4), 137 mM NaCl, 10% (v/v) glycerine, 1% Triton X-100, 2 mM EDTA, 100 mM phenylmethylsulfonyl fluoride and protease inhibitors (Complete mini from Roche). Lysates were centrifuged at 14,000×g (10 min) at 4° C. Total protein was measured by the Bradford (Bio-Rad) method. Soluble protein was resolved by SDS-PAGE, blotted onto nitrocellulose and incubated with one of the following antibodies: mouse monoclonal anti-β-actin (1:3,000, Sigma-Aldrich), rabbit anti PK M2 (1:1,000, Cell Signaling), rabbit anti-malic enzyme 1 (1:1,000, abcam). Appropriate secondary antibodies (1:3,000, horse-radish peroxidase-conjugated) were from Bio-Rad. Visualization was done by enhanced chemiluminescence technique (GE-Healthcare). Mitochondrial fractions were extracted using the ApoAlert Cell Fractionation Kit (Clontech) as described earlier (Gdynia, G. et al. BLOC1S2 interacts with the HIPPI protein and sensitizes NCH89 glioblastoma cells to apoptosis. Apoptosis: an international journal on programmed cell death 13, 437-447, (2008)).

complex II and III = test: as above; type: cell-based, human; settings: HMGB1 80 nM, 24 h
Protocol: as §1, §2

[1] = system: cytochrome c oxidase (COX); test: as above; type: cell-based, human
Protocol: as §1, §2

ATP synthase = test: as above; type: cell-based, human; settings: colorectal cancer cell lines; HMGB1 80 nM, 24 h
Protocol: as §1, §2

pentose phosphate shunt = test: Incorporation of 14C into RNA ribose from U-14C-labelled glucose; type: cell-based, human; settings: HMGB1 80 nM, 24 h
Protocol: Lactate derived from the metabolism of ^13C6-D-glucose or ^13C5-glutamine was determined by comparing the CH3 group intensities of labeled and non-labeled lactate in NMR. Mitochondrial respiration was measured using an Oroboros 1 oxygraph system. Glycolysis was measured by monitoring the conversion of 5-^3H-Glucose to ^3H2O. Incorporation of ^14C into RNA ribose from U-^14C-labelled glucose was taken as glucose utilization in the pentose phosphate shunt. Enzymatic activities were determined in subcellular fractions as previously described^24.

HT29 cells = test: Production of labeled CO2 (glucose and glutamine oxidation); type: cell-based, human; settings: HT29 cells after HMGB1 treatment
glucose-6-phosphate = test: Glucose-6-phosphate assay kit; type: cell-based, human; settings: HMGB1-treated cells
Protocol: Glucose-6-phosphate levels in cells were measured using the Glucose-6-phosphate assay kit (Sigma) according to the manufacturer's protocol.

Dimeric PK M2 = target: T1, Dimeric PK M2 (Homo sapiens, UniProt P14618); test: Pyruvate kinase enzymatic assay (high PEP); type: cell-based; settings: colorectal cancer cells
T1 construct: Activities of glycolytic enzymes measured in cytosolic fractions after treatment with HMGB1; endogenous in cells; host or cells: SW480, HCT116, HT29 cytosolic fractions; homogenates of human colon cancer tissue slices
Protocol: as §1, with “Two isoforms of ME1, mitochondrial (NAD(P)+dependent) ME3 and mitochondrial (NAD+dependent) ME2, had very low or no detectable activities (data not shown).” left out

T1 sequence (P14618 2-531 limits assumed): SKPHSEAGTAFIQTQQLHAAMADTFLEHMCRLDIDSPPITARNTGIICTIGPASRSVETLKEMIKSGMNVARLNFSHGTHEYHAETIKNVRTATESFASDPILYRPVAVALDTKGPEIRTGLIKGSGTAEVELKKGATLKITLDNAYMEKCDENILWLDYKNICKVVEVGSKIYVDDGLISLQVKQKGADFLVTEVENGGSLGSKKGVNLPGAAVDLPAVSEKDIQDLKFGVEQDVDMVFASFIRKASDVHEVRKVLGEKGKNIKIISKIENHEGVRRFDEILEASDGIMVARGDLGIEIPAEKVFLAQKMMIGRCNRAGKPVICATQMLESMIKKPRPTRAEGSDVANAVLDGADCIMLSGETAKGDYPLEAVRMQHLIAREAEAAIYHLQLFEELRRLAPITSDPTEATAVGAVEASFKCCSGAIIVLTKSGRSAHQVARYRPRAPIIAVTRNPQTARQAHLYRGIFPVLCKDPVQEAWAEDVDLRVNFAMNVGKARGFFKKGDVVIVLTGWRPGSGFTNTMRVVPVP

With “HMGB1: recombinant human HMGB1 protein (Sigma-Aldrich); High Mobility Group Box 1 polypeptide, human, SEQ ID NO: 4” the “electron flow from complex I to III” value (complex I to III) was “unchanged”, the “coupled complex II and III activity” value (complex II and III; HCT116) was “maintained or even upregulated” and the “coupled complex II and III activity” value (complex II and III; HT29) was “maintained or even upregulated”. The “coupled complex II and III activity” value (complex II and III; SW480) was “decreased”, the COX activity ([1]; colorectal cancer cell lines, HMGB1 80 nM, 24 h) was “significantly lower activity levels” and the COX activity ([1]; primary tumor tissue slices, HMGB1 160 nM, 72 h) was “potent inhibition”. For the same substance, the ATP synthase activity (ATP synthase) was “not diminished”, the “flux of glycolytic intermediates into the pentose phosphate shunt” value (pentose phosphate shunt) was “increased flux” and the “decrease of glucose oxidation” value (HT29 cells) was ~50%. The “increase of glutamine oxidation” value (HT29 cells) was ~35%, the glucose-6-phosphate level (glucose-6-phosphate) was “strong increase” and the “Dimeric PK M2 activity” value (Dimeric PK M2) was “unchanged”.

Reference: US11274132B2, “Combined preparations of PKM2 modulators and HMGB1” (Ruprecht-Karls-Universität Heidelberg, priority 2015, dated 2022)
